Measurements taken from patent publication US20250154173A1 (Merck Sharp & Dohme LLC, priority 2023, published 2025).

Target: T1, GST-RIPK1 (recombinant GST-RIPK1 kinase domain (residues 1-327)) (Homo sapiens, UniProt Q13546)
T1 construct: recombinant GST-RIPK1 kinase domain (residues 1-327) enzyme produced from baculovirus-transfected Sf21 cells; host or cells: baculovirus-transfected Sf21 insect cells
T1 sequence (Q13546 1-327): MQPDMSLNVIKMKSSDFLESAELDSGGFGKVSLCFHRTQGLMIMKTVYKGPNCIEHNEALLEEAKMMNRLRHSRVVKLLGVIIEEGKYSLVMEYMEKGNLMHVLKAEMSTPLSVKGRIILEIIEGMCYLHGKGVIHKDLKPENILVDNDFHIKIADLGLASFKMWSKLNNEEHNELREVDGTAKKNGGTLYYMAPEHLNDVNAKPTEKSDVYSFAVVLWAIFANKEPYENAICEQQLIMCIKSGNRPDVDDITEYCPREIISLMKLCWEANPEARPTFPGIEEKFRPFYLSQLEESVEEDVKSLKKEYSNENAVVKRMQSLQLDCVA
Test: RIPK1-ADP-Glo Enzymatic Assay
Type: biochemical
Conditions: ten-point titration, top compound concentration of 100000 nM; 25 nM GST-RIPK1, 300 μM ATP, 3 μM dephosphorylated-MBP; 30 min pre-incubation, 150 min reaction
In short: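 GST-RIPK1 kinase domain (residues 1-327, Sf21-expressed), 25 nM, preincubated 30 min with compound, then reacted 150 min with 300 μM ATP and 3 μM dephosphorylated MBP in pH 7.3 Hepes buffer, 1% DMSO. ADP measured by ADP-Glo luminescence; EC50 from ten-point titration (top 100000 nM), four-parameter fit.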

Row | SMILES | EC50
1 | O=C1N2C(CC[C@H]2c2cnccn2)OC12CC(OCc1cc(Cl)ccc1-c1cnco1)C2 (stereo partly drawn) [Example 18.33, (5′S)-3-{[5-chloro-2-(1,3-oxazol-5-yl)phenyl]methoxy}-5′-(pyrazin-2-yl)tetrahydro-3′H-spiro[cyclobutane-1,2′-pyrrolo[2,1-b][1,3]oxazol]-3′-one] | 0.043 µM
2 | O=C1N2C(CC[C@H]2c2cnccn2)OC12CC(OCc1ccc(OCCF)nn1)C2 (stereo partly drawn) [Example 18.44, (5′S)-3-{[6-(2-fluoroethoxy)pyridazin-3-yl]methoxy}-5′-(pyrazin-2-yl)tetrahydro-3′H-spiro[cyclobutane-1,2′-pyrrolo[2,1-b][1,3]oxazol]-3′-one] | 0.241 µM
3 | O=C1N2[C@@H](CC[C@H]2c2cnccn2)OC12CC(OCC1CCC1)C2 (single isomer, unassigned) [Example 23.1, (5′S,7a′R)-3-(cyclobutylmethoxy)-5′-(pyrazin-2-yl)tetrahydro-3′H-spiro[cyclobutane-1,2′-pyrrolo[2,1-b]oxazol]-3′-one] | 0.46 µM
4 | Cc1cc(OC2CC3(C2)O[C@@H]2CC[C@@H](c4ccccc4)N2C3=O)ccc1F (stereo partly drawn) [Example 8.13, (5′S,7a′R)-3-(4-fluoro-3-methylphenoxy)-5′-phenyltetrahydro-3′H-spiro[cyclobutane-1,2′-pyrrolo[2,1-b][1,3]oxazol]-3′-one] | 0.062 µM
5 | O=C1N2C(CC[C@H]2c2cnccn2)OC12CC(OCc1ccc(Cn3ccnc3)cc1)C2 (stereo partly drawn) [Example 18.74, (5′S)-3-({4-[(1H-imidazol-1-yl)methyl]phenyl}methoxy)-5′-(pyrazin-2-yl)tetrahydro-3′H-spiro[cyclobutane-1,2′-pyrrolo[2,1-b][1,3]oxazol]-3′-one] | 0.092 µM
6 | O=C1N2C(CC[C@H]2c2cnccn2)OC12CC(OCc1cnc3nccn3c1)C2 (stereo partly drawn) [Example 18.94, (5′S)-3-[(imidazo[1,2-a]pyrimidin-6-yl)methoxy]-5′-(pyrazin-2-yl)tetrahydro-3′H-spiro[cyclobutane-1,2′-pyrrolo[2,1-b][1,3]oxazol]-3′-one] | 0.283 µM
7 | O=C1N2[C@@H](CC[C@H]2c2cnccn2)OC12CC(Oc1ccccc1)C2 (stereo partly drawn) [Example 19.17, (5′S,7a′R)-3-phenoxy-5′-(pyrazin-2-yl)tetrahydro-3′H-spiro[cyclobutane-1,2′-pyrrolo[2,1-b][1,3]oxazol]-3′-one] | 0.021 µM
8 | O=C1N2C(CC[C@H]2c2cnccn2)OC12CC(OCc1ccc(C(F)F)cn1)C2 (stereo partly drawn) [Example 18.63, (5′S)-3-{[5-(difluoromethyl)pyridin-2-yl]methoxy}-5′-(pyrazin-2-yl)tetrahydro-3′H-spiro[cyclobutane-1,2′-pyrrolo[2,1-b][1,3]oxazol]-3′-one] | 0.354 µM
9 | COc1ccc2cc(COC3CC4(C3)OC3CC[C@@H](c5cnccn5)N3C4=O)ncc2n1 (stereo partly drawn) [Example 18.81, (5′S)-3-[(2-methoxy-1,7-naphthyridin-6-yl)methoxy]-5′-(pyrazin-2-yl)tetrahydro-3′H-spiro[cyclobutane-1,2′-pyrrolo[2,1-b][1,3]oxazol]-3′-one] | 0.756 µM
10 | Cc1cn(-c2cc(OC3CC4(C3)O[C@@H]3CC[C@@H](c5cc(F)cc(F)c5)N3C4=O)ncn2)cn1 (single isomer, unassigned) [Example 9.9] | 0.475 µM
11 | CC(OC1CC2(C1)O[C@@H]1CC[C@@H](c3cc(F)cc(F)c3)N1C2=O)c1ccccc1 (single isomer, unassigned) [Example 15.1, ((1S or R),3R,5′S,7a′R)-5′-(3,5-difluorophenyl)-3-((S or R)-1-phenylethoxy)tetrahydro-3′H-spiro[cyclobutane-1,2′-pyrrolo[2,1-b]oxazol]-3′-one] | 0.284 µM
12 | O=C1N2[C@@H](CC[C@H]2c2cnccn2)OC12CC(Oc1cncc(Cl)c1)C2 (stereo partly drawn) [Example 19.18, (5′S,7a′R)-3-[(5-chloropyridin-3-yl)oxy]-5′-(pyrazin-2-yl)tetrahydro-3′H-spiro[cyclobutane-1,2′-pyrrolo[2,1-b][1,3]oxazol]-3′-one] | 0.023 µM
13 | Cc1ncccc1COC1CC2(C1)O[C@@H]1CC[C@@H](c3cnccn3)N1C2=O (stereo partly drawn) [Example 20.5, (5′S,7a′R)-3-[(2-methylpyridin-3-yl)methoxy]-5′-(pyrazin-2-yl)tetrahydro-3′H-spiro[cyclobutane-1,2′-pyrrolo[2,1-b][1,3]oxazol]-3′-one] | 0.074 µM
14 | N#Cc1ccc(COC2CC3(C2)O[C@@H]2CC[C@@H](c4cnccn4)N2C3=O)cc1 (single isomer, unassigned) [Example 22.2, 4-((((5′S,7a′R)-3′-oxo-5′-(pyrazin-2-yl)tetrahydro-3′H-spiro[cyclobutane-1,2′-pyrrolo[2,1-b]oxazol]-3-yl)oxy)methyl)benzonitrile] | 0.027 µM
